Reference: ChEMBL document CHEMBL2429731, “Using genetic methods to define the targets of compounds with antimalarial activity” (J Med Chem, 2013)

Columns and labels:
[1] = tested on: Plasmodium yoelii; assay: Antimalarial activity against sporozoite stage of Plasmodium yoelii assessed as invasion of human HepG2 cells expressing CD81 incubated for 2 hrs prior to inoculation measured after 1 hr by immunofluorescence assay in presence of penicillin/streptomycin; assay type: functional, organism-based
[2] = tested on: Plasmodium berghei; assay: Antimalarial activity against gametocytic stage of Plasmodium berghei infected in blood assessed as inhibition of ookinete formation at 10 uM after 24 hrs by Giemsa staining-based microscopic analysis relative to control; assay type: functional

IC50 [1] [nM]	SMILES	inhibition at 10 µM [2] [%]
< 1000	COc1cc(C)c2c(Oc3cccc(C(F)(F)F)c3)c(OC)cc(NC(C)CCCN)c2n1 (configuration not stated) [TAFENOQUINE]	–
< 1000	CCc1nc(N)nc(N)c1-c1ccc(Cl)cc1 [PYRIMETHAMINE]	< 50
< 1000	C[C@H]1[C@H](OC(=O)CCC(=O)O)O[C@@H]2O[C@@]3(C)CC[C@H]4[C@H](C)CC[C@@H]1[C@@]24OO3 [ARTESUNATE]	–
< 1000	COc1ccc2nc3cc(Cl)ccc3c(Nc3cc(CN4CCCC4)c(O)c(CN4CCCC4)c3)c2n1 [PYRONARIDINE]	< 50
< 1000	COc1cc(NC(C)CCCN)c2ncccc2c1 (configuration not stated) [PRIMAQUINE]	< 50
< 1000	CN(C)c1ccc2nc3ccc(N(C)C)cc3[s+]c2c1 [METHYLENE BLUE ANHYDROUS]	< 50
< 1000	O=C1C(O)=C([C@H]2CC[C@H](c3ccc(Cl)cc3)CC2)C(=O)c2ccccc21 [ATOVAQUONE]	< 50

More lines, now with the values behind:

SMILES	IC50 [1] [nM]	inhibition at 10 µM [2] [%]
C=C[C@H]1CN2CC[C@H]1C[C@H]2[C@H](O)c1ccnc2ccc(OC)cc12 [QUININE]	–	< 50
CO[C@H]1O[C@@H]2O[C@@]3(C)CC[C@H]4[C@H](C)CC[C@@H]([C@H]1C)[C@@]24OO3 [ARTEMETHER]	< 1000	–
COc1cc(N[C@H](C)CCCN)c2nccc(C)c2c1Oc1ccc(Cl)c(Cl)c1	< 1000	–
C[C@H]1[C@@H](O)O[C@@H]2O[C@@]3(C)CC[C@H]4[C@H](C)CC[C@@H]1[C@@]24OO3 [ARTENIMOL]	< 1000	–
CCc1nc(N)nc(N)c1OCCCOc1ccccc1CCC(=O)O	< 1000	–
